Patent publication US11040036B2, “Pyruvate kinase activators for use in treating blood disorders” (Agios Pharmaceuticals, Inc., priority 2017, dated 2021)

Tests used:
wild type PKR [1] = target: T1, wild type PKR (Homo sapiens, UniProt P30613); experiment: PKR mutant assay (AC50), wild type PKR; format: biochemical; conditions: wild type PKR enzyme; read-out: PKR WT AC50
Procedure, shortened: (§1)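 Compounds were tested from 100 μM final, 3-fold over 11 points, and held 60 min at room temperature with enzyme (40-400 ng/well wild-type, R510Q or K410E PKR). ADP 0.2-1.65 mM then started the reaction, with PEP 0.1-0.5 mM in pH 7.5 Tris/KCl/MgCl2 buffer. LDH/NADH (180 μM) coupled read-out was taken as A340 change, fitted to AC50.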

PKR K410E = PKR K410E (Homo sapiens, UniProt P30613, K410E); experiment: PKR mutant assay (AC50), PKR K410E; format: biochemical; conditions: PKR K410E mutant enzyme
Procedure, shortened: as §1

PKR R510Q = PKR R510Q (Homo sapiens, UniProt P30613, R510Q); experiment: PKR mutant assay (AC50), PKR R510Q; format: biochemical; conditions: PKR R510Q mutant enzyme; read-out: PK R510Q AC50
Procedure, shortened: as §1

wild type PKR [2] = target: T1, wild type PKR; experiment: Cell based ATP assay in purified red blood cells; parameters: endogenous in cells; host or cells: purified red blood cells from blood of healthy volunteers; conditions: RBCs, overnight at 37° C., ATP levels by Cell-Titer-Glo
Procedure, shortened: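 ATP content was measured by CellTiter-Glo after overnight exposure to compound at 37 °C. Cells were purified red blood cells from healthy donors, filtered to remove leukocytes and suspended at 1×10^7 cells/mL in AGAM medium. Compounds were serially diluted 1:4, with 0.1% DMSO final.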

PKR R510Q, sequence (P30613 whole entry R510Q): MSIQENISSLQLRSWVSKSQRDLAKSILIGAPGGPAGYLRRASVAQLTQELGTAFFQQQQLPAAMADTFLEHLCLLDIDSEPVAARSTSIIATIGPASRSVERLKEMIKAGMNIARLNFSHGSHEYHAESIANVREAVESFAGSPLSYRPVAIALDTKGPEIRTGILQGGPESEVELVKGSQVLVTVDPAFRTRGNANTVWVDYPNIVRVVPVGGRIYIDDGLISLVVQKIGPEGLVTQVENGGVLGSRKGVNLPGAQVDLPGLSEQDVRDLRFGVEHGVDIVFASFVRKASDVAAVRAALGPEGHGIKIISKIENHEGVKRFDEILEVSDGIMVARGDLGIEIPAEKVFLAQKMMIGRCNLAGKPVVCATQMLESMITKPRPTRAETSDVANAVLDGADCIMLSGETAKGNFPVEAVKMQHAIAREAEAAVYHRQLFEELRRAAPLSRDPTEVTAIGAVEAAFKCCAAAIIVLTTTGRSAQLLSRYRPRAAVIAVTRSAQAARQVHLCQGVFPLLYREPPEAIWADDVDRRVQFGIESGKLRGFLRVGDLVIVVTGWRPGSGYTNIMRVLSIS
T1 sequence (P30613 whole entry): as the sequence (P30613 whole entry R510Q) above, with Q510R counted along it
PKR K410E, sequence (P30613 whole entry K410E): as the sequence (P30613 whole entry R510Q) above, with K410E, Q510R counted along it

SMILES	AC50 (wild type PKR [1])	AC50 (PKR K410E)	AC50 (PKR R510Q)	AC50 (wild type PKR [2])	Cell based ATP assay AC50 (wild type PKR [2])
Cn1ccc(Cn2ncc3c4sc(Cc5cc[nH]n5)nc4n(C)c3c2=O)n1	< 300 nM	< 300 nM	< 300 nM	≤ 1000 nM	
Cn1c2nc(Cc3cc[nH]n3)sc2c2cnn(Cc3cc(F)[nH]n3)c(=O)c21	< 300 nM	< 300 nM	< 300 nM	≤ 1000 nM	
Cn1c2nc(Cc3cc[nH]n3)sc2c2cnn(Cc3n[nH]cc3OC(F)(F)F)c(=O)c21	301 to 800 nM	301 to 800 nM	301 to 800 nM	> 1000 nM	
Cn1c2nc(Cc3cc[nH]n3)sc2c2cnn(Cc3nc[nH]n3)c(=O)c21	< 300 nM	< 300 nM	< 300 nM	≤ 1000 nM	
Cn1c2nc(Cc3cc[nH]n3)sc2c2cnn(Cc3nc(C#N)cs3)c(=O)c21	< 300 nM	< 300 nM	< 300 nM	≤ 1000 nM	
Cn1c2nc(Cc3cscn3)sc2c2cnn(Cc3cccc(N)n3)c(=O)c21	< 300 nM	< 300 nM	< 300 nM	≤ 1000 nM	
Cn1c2nc(Cc3cc[nH]n3)sc2c2cnn(Cc3nc(N)ccc3F)c(=O)c21	< 300 nM	< 300 nM	< 300 nM	≤ 1000 nM	
Cn1c2nc(Cc3cc[nH]n3)sc2c2cnn(Cc3ccc(C(N)=O)cn3)c(=O)c21	301 to 800 nM	< 300 nM	> 800 nM	≤ 1000 nM	
Cn1cc(CN)c(Cn2ncc3c4sc(Cc5cc[nH]n5)nc4n(C)c3c2=O)n1	> 800 nM	> 800 nM	< 300 nM	> 1000 nM	
Cn1c2nc(Cc3cc[nH]n3)sc2c2cnn(Cc3cccc(=O)[nH]3)c(=O)c21	< 300 nM	< 300 nM	301 to 800 nM	> 1000 nM	
Cn1c2nc(Cn3ccnc3)sc2c2cnn(Cc3ccnc(N)n3)c(=O)c21	> 800 nM	> 800 nM	> 800 nM		No Fit
Cn1c2nc(Cc3cc[nH]n3)sc2c2cnn(Cc3csc(N)n3)c(=O)c21	< 300 nM	< 300 nM	< 300 nM	≤ 1000 nM	
Cn1c2nc(Cc3cc[nH]n3)sc2c2cnn(Cc3c[nH]c(N)n3)c(=O)c21	< 300 nM	< 300 nM	< 300 nM	≤ 1000 nM	
Cn1c2nc(Cc3cc[nH]n3)sc2c2cnn(Cc3cnc(C(N)=O)o3)c(=O)c21	301 to 800 nM	301 to 800 nM	301 to 800 nM	> 1000 nM	
Cn1c2nc(Cc3cc[nH]n3)sc2c2cnn(Cc3cccnc3)c(=O)c21	< 300 nM	< 300 nM	< 300 nM	≤ 1000 nM	
Cn1c2nc(Cc3cc[nH]n3)sc2c2cnn(Cc3ccsn3)c(=O)c21	< 300 nM	< 300 nM	< 300 nM	≤ 1000 nM	
Cn1cc(N)c(Cn2ncc3c4sc(Cc5cc[nH]n5)nc4n(C)c3c2=O)n1	< 300 nM	< 300 nM	< 300 nM	≤ 1000 nM	
Cn1c2nc(Cc3cc[nH]n3)sc2c2cnn(Cc3ccc(F)c(Br)n3)c(=O)c21	< 300 nM	< 300 nM	< 300 nM	≤ 1000 nM	
Cn1c2nc(Cc3ncsc3F)sc2c2cnn(Cc3c[nH]nn3)c(=O)c21	< 300 nM	< 300 nM	< 300 nM	≤ 1000 nM	
Cn1c2nc(Cc3cc[nH]n3)sc2c2cnn(Cc3coc(Cl)n3)c(=O)c21	< 300 nM	< 300 nM	< 300 nM	≤ 1000 nM	
Cn1c2nc(Cc3cc[nH]n3)sc2c2cnn(Cc3ncsc3F)c(=O)c21	< 300 nM	< 300 nM	< 300 nM	≤ 1000 nM	

SMILES	AC50 (wild type PKR [1])	AC50 (PKR K410E)	AC50 (PKR R510Q)	AC50 (wild type PKR [2])	Cell based ATP assay AC50 (wild type PKR [2])
CC(=O)Nc1ccc(F)c(Cn2ncc3c4sc(Cc5cc[nH]n5)nc4n(C)c3c2=O)n1	> 800 nM	> 800 nM	< 300 nM	> 1000 nM	
Cn1c2nc(Cc3cc[nH]n3)sc2c2cnn(Cc3cccc(NO)n3)c(=O)c21	< 300 nM	< 300 nM	< 300 nM	≤ 1000 nM	
Cn1c2nc(Cc3ccccn3)sc2c2cnn(Cc3cscn3)c(=O)c21	< 300 nM	< 300 nM	< 300 nM	≤ 1000 nM	
Cn1c2nc(Cc3cc[nH]n3)sc2c2cnn(Cc3cocn3)c(=O)c21	< 300 nM	< 300 nM	< 300 nM	≤ 1000 nM	
Cn1c2nc(Cn3cc[nH]c3=O)sc2c2cnn(Cc3cc[nH]n3)c(=O)c21	< 300 nM	< 300 nM	< 300 nM	≤ 1000 nM	
COCc1cn(C)nc1Cn1ncc2c3sc(Cc4cc[nH]n4)nc3n(C)c2c1=O	> 800 nM	> 800 nM	> 800 nM	> 1000 nM	
Cn1c2nc(Cc3cc[nH]n3)sc2c2cnn(Cc3cscn3)c(=O)c21	< 300 nM	< 300 nM	< 300 nM	≤ 1000 nM	
Cn1c2nc(Cc3n[nH]cc3F)sc2c2cnn(Cc3n[nH]cc3Cl)c(=O)c21	< 300 nM	< 300 nM	< 300 nM	≤ 1000 nM	
Cn1c2nc(Cc3cc[nH]n3)sc2c2cnn(Cc3ncsc3N)c(=O)c21	< 300 nM	< 300 nM	< 300 nM	≤ 1000 nM	
COc1ncccc1Cn1ncc2c3sc(Cc4n[nH]cc4F)nc3n(C)c2c1=O	< 300 nM	< 300 nM	< 300 nM	≤ 1000 nM	
Cn1c2nc(Cc3n[nH]cc3F)sc2c2cnn(Cc3ccc[nH]c3=O)c(=O)c21	< 300 nM	< 300 nM	< 300 nM	≤ 1000 nM	
Cn1c2nc([C@@H](O)c3cc[nH]n3)sc2c2cnn(Cc3cc[nH]n3)c(=O)c21	< 300 nM	< 300 nM	< 300 nM	≤ 1000 nM	
Cn1cc(OC(F)(F)F)c(Cn2ncc3c4sc(Cc5cc[nH]n5)nc4n(C)c3c2=O)n1	< 300 nM	< 300 nM	< 300 nM	≤ 1000 nM	
Cn1c2nc(Cc3cc[nH]n3)sc2c2cnn(Cc3c[nH]c(C(N)=O)n3)c(=O)c21	< 300 nM	< 300 nM	< 300 nM	≤ 1000 nM	
Cn1c2nc(Cc3ncsc3F)sc2c2cnn(Cc3cc[nH]n3)c(=O)c21	< 300 nM	< 300 nM	< 300 nM	≤ 1000 nM	
Cn1c2nc(Cc3c[nH]nn3)sc2c2cnn(Cc3nccs3)c(=O)c21	301 to 800 nM	< 300 nM	< 300 nM	≤ 1000 nM	
Cn1c2nc(Cc3cscn3)sc2c2cnn(Cc3cscn3)c(=O)c21	< 300 nM	< 300 nM	< 300 nM	≤ 1000 nM	
Cn1c2nc(Cc3cc[nH]n3)sc2c2cnn(Cc3cc(F)cc(N)n3)c(=O)c21	< 300 nM	< 300 nM	< 300 nM	≤ 1000 nM	
Cn1c2nc(Cc3cc[nH]n3)sc2c2cnn(Cc3coc(N)n3)c(=O)c21	< 300 nM	< 300 nM	< 300 nM	≤ 1000 nM	
Cn1ccc(Cc2nc3c(s2)c2cnn(Cc4ccn(C)n4)c(=O)c2n3C)n1	< 300 nM	< 300 nM	< 300 nM	≤ 1000 nM	
Cn1cc(C#N)c(Cn2ncc3c4sc(Cc5cc[nH]n5)nc4n(C)c3c2=O)n1	< 300 nM	< 300 nM	< 300 nM	≤ 1000 nM	
